Data from PMC9002265, “A New Series of Strigolactone Analogs Derived From Cinnamic Acids as Germination Inducers for Root Parasitic Plants” (Frontiers in Plant Science, 2022).
Read-outs that look alike come from different tables or passages of the source.

Key:
[1] = biological target: T1, ShHTL7 (Striga hermonthica, UniProt A0A0M3PNA2); experiment: YLG assay (inhibition of YLG hydrolysis) with recombinant ShHTL7; type: biochemical
T1 sequence (A0A0M3PNA2 1-271): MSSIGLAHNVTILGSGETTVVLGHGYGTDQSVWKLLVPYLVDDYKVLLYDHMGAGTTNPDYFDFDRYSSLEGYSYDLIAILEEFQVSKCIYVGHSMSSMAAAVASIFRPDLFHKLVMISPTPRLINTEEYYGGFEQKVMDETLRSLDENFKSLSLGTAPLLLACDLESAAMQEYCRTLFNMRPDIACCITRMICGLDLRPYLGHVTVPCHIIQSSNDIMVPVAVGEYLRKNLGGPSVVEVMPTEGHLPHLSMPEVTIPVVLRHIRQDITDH
Protocol: (§1) The ORF fragment of ShHTL6 and ShHTL7 was synthesized using IDT gBlock service. The PCR amplified ShHTL6 and ShHTL7 fragment was digested with Nco I and EcoR I, and the digested product was introduced into a modified pET28 vector with an N-terminal His8 tag. Escherichia coli BL21(DE3) was used for protein expression. The overnight culture (12 ml) was added to a fresh LB medium (1.2 L) containing kanamycin (50 mg/L) at 37°C. After OD600 reached 0.8, 0.1 mM IPTG was added and the cell was further incubated at 16°C for 21 h. The culture medium was centrifuged at 3700 g and the pellet was stored at −20°C until use. The pellet was resuspended and sonicated in a lysis buffer (50 mM Tris buffer (pH 8.0) containing 500 mM NaCl, 10 mM 2-mercaptoethanol, and 10% glycerol). The supernatant was purified by Ni Sepharose TM 6 Fast Flow (500 μl, Cytiva). After washing with the washing buffer (50 mM Tris buffer (pH 8.0) containing 500 mM NaCl and 20 mM imidazole), The bound protein was eluted with elution buffer (50 mM Tris buffer (pH 8.0) containing 500 mM NaCl and 200 mM imidazole). The eluate was concentrated using VIVASPIN Turbo 15 (Sartorius), and the concentration was adjusted to 5 mg/ml. The purified protein was aliquoted to the appropriate volume, immediately frozen in liquid nitrogen, and stored at −80°C until use.
(§2) After YLG was incubated with recombinant ShHTL6 or ShHTL7 for 1 h, the fluorescence was measured by spectraMax i5 (Molecular Devices) at excitation by 480 nm and detection by 520 nm. IC50 values were calculated using the online tool Quest GraphTM IC50 Calculator (AAT Bioquest, Inc., United States; https://www.aatbio.com/tools/ ic50-calculator).

[2] = test system: Striga hermonthica seeds; parameters: method as in Uraguchi et al., 2018; conditions: ref Uraguchi et al., 2018; cited from earlier work
[3] = test system: Orobanche minor seeds; experiment: Germination assay, Orobanche minor seeds; type: in vivo; conditions: O. minor seeds; result in words
Protocol: Orobanche minor seeds were washed with 70% EtOH, and then sonicated for 4 min in 1% sodium hypochlorite solution containing 0.2% Tween-20. The seeds were then washed 10 times with sterile water and suspended in 0.1% agar solution. The seeds were loaded onto 5-mm glass fiber filter disks (20–70 seeds/disk) and were conditioned at 23°C for 15 days. Each disk was transferred into a 96-well plate. A 30 μl aliquot of test chemical solution was added to the well. For the germination assay, the chemical solutions were prepared by 1,000 times dilution from each acetone stock solution with water (final acetone concentration was 0.1%). GR24 solution (0.1% acetone) and sterile water (0.1% acetone) was used as positive and negative control, respectively. The 96 well plates were incubated for 5 days at 23°C and the number of total seeds and germinated seeds was counted.

[4] = biological target: T2, ShHTL6 (Striga hermonthica, UniProt A0A0M4AUV4); experiment: YLG assay (inhibition of YLG hydrolysis) with recombinant ShHTL6; type: biochemical
T2 sequence (A0A0M4AUV4 1-271): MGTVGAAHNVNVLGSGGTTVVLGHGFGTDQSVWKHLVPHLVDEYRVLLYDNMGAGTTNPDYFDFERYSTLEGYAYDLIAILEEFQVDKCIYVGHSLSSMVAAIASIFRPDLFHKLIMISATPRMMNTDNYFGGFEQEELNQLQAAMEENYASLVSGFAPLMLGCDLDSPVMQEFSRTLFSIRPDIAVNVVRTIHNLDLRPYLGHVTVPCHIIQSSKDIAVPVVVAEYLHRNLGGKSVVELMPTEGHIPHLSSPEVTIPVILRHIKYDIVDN
Protocol: as §1, §2

[5] = Time course monitoring of degradation in hydroponic culture; type: physicochemical; conditions: 1 μM, within 1 week, pH 5.7, LC-MS/MS
Protocol: t-CASL1, c-CASL1, PPASL, and GR5 were separately added to 15 ml tubes containing hydroponic culture. The final concentration of the test compounds is 1 μM and acetone was adjusted to 0.01% (v/v). These solutions were incubated under the same conditions as branching assay. After incubation for 0, 5, 24 72, or 168 h, 495 μl of hydroponic culture containing test compounds was collected and 5 μl of NAA solution (10 μM) was added as an internal standard. The solution was extracted with ethyl acetate. The ethyl acetate phase was dried up under the nitrogen gas and dissolved in acetonitrile. These samples were subjected to LC–MS/MS analysis equipped with reverse-phase column (CORTECS UPLC Phenyl 1.6 μm, ϕ2.1 × 75 mm; Waters). Each peak area of test chemicals and internal standard was calculated, and the remaining percentage of teste chemicals was calculated. At the same time, the degradation products of test compounds (CA or PPA) were also analyzed. Detailed information about the analytical condition was described in Supplementary Table 1.

[6] = biological target: T3, AtD14 (Arabidopsis thaliana, UniProt Q9SQR3); experiment: Hydrolysis assay with recombinant AtD14; type: biochemical; conditions: 10 μM substrate, 30°C, 60 min
T3 construct: The cDNA of AtD14 was introduced into pMALHis vector; MBP; His6; made in house; host or cells: E. coli BL21 (DE3)
T3 sequence (Q9SQR3 1-267): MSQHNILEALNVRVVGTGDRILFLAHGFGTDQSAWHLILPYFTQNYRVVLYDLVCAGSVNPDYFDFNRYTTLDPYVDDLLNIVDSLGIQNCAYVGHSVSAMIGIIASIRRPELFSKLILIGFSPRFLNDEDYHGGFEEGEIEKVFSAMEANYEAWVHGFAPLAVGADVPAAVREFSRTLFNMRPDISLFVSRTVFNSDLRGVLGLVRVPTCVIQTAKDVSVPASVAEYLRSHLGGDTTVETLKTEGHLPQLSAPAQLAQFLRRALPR
Protocol: The cDNA of AtD14 was introduced into pMALHis vector that has both MBP-tag and His6-tag. The vector was transformed in to E. coli BL21 (DE3) and the cell was precultured in LB medium containing 50 μg/ml ampicillin. Overnight cultures (10 ml) were added to fresh LB medium (1 L) containing 50 μg/ml ampicillin and it was cultured at 37°C. After OD600 reached to 0.8, the cultures were cooled at 16°C for 1 h, and then 0.1 mM IPTG was added. The culture was further incubated at 16°C for 20 h. The culture medium was centrifuged at 3,700 g and the pellet was stored at −20°C until use. The pellet was resuspended and sonicated in lysis buffer (50 mM Tris buffer (pH 8.0) containing 500 mM NaCl, 10 mM 2-mercaptoethanol, and 10% glycerol). The supernatant was purified by Ni Sepharose TM 6 Fast Flow (500 μl, Cytiva) After washing with the washing buffer (50 mM Tris buffer (pH 8.0) containing 500 mM NaCl and 20 mM imidazole), The bound protein was eluted with elution buffer (50 mM Tris buffer (pH 8.0) containing 500 mM NaCl and 200 mM imidazole). The eluate was concentrated using VIVASPIN Turbo 15 (Sartorius), and the concentration was adjusted to 5 mg/ml. The purified protein was aliquoted to the appropriate volume, immediately frozen in liquid nitrogen, and stored at −80°C until use.
(§3) Hydrolysis assays were carried out at 30°C for 60 min in 100 μl of a reaction buffer containing 0.13 pmol recombinant ShHTL7 or AtD14, 10 μM of substrate in 50 mM Phosphate-Na buffer (pH 7.0) containing 2% acetone. The enzyme reaction was stopped by addition of 100 μl of acetonitrile containing 1-naphtaleneacetic acid (NAA; 0.5 ng/μl) as an internal standard. After centrifuged at 13,000 rpm for 5 min, each sample was subjected to LC–MS/MS analysis equipped with reverse-phase column (CORTECS UPLC Phenyl 1.6 μm, ϕ2.1 × 75 mm; Waters). The concentration of remaining substrate and reaction product was calculated by using NAA as an internal standard. Detailed information about the analytical condition is described in Supplementary Table 1.

[7] = biological target: T1, ShHTL7; experiment: Hydrolysis assay with recombinant ShHTL7; type: biochemical; conditions: 10 μM substrate, 30°C, 60 min
Protocol: as §1, §3

[8] = test system: Arabidopsis wild type Col-0; experiment: Growth promoting assay and root phenotypic analysis; type: in vivo; conditions: 1 μM on agar plate
Protocol: Sterilized seeds of the Arabidopsis wild type Col-0 were put on the plate containing 1% (w/v) agar-solidified 0.5× Murashige and Skoog (MS) medium, 1% sucrose. Test compounds were dissolved in the medium at 1 μM by 10,000 times dilution from each acetone stock (final concentration of acetone was 0.01% (v/v)). To evaluate the growth promoting effect, these seedlings were cultured horizontally at 22°C for 20 days under LED light (105 μmol/m^2/s) with a 16 h light/8 h dark photoperiod. After the cultivation, flesh weight of shoot was measured. For root phenotypic analysis, these seedlings were cultured verticaly at 22°C for 11 days under LED light (105 μmol/m^2/s) with a 16 h light/8 h dark photoperiod. After the cultivation, root length was measured by using ImageJ software and number of lateral roots was counted by using a microscope.

[9] = read-out: IC50 in YLG assay, 1 h incubation
[10] = 1 h incubation, read-out: IC50 in YLG assay

SMILES | IC50 [1, 10] [µM] | further results
CCOc1ccc(/C=C\C(=O)OC2C=C(C)C(=O)O2)cc1 (stereo not shown) [c-CASL5] | – | IC50 [1, 9]: 0.31 µM
COc1ccc(/C=C\C(=O)OC2C=C(C)C(=O)O2)cc1 (stereo not shown) [c-CASL4] | 0.66 | –
CCCCOc1ccc(S(=O)(=O)N2CCN(C(=O)OC3C=C(C)C(=O)O3)CC2)cc1 (stereo not shown) [SPL7, sphynolactone-7] | – | concentration inducing S. hermonthica germination [2]: fM concentrations
CC1=CC(OC(=O)/C=C/c2ccc(F)cc2)OC1=O (stereo not shown) [t-CASL7] | 1.55 | –
CC1=CC(OC(=O)/C=C2/CCc3ccccc32)OC1=O (stereo not shown) [c-indCASL] | 2.01 | –
CC1=CC(OC(=O)/C=C2\CCCc3ccccc32)OC1=O (stereo not shown) [t-tetCASL] | 3.85 | germination-inducing activity compared with the corresponding non-fixed (unfixed) analog [3]: much stronger activity
CC1=CC(OC(=O)/C=C/c2ccccc2)OC1=O (stereo not shown) [t-CASL1] | 2.05 | IC50 [4]: 1.85 µM; loss (non-enzymatic degradation) in hydroponic culture medium [5]: ~40%; hydrolysis by AtD14 [6]: can hydrolyze; hydrolysis by HTL7 [7]: can hydrolyze
CC1=CC(OC(=O)/C=C\c2ccc([N+](=O)[O-])cc2)OC1=O (stereo not shown) [c-CASL6] | 0.25 | –
CC1=CC(OC(=O)/C=C\c2ccc(C(F)(F)F)cc2)OC1=O (stereo not shown) [c-CASL10] | 0.22 | –
CC1=CC(OC(=O)/C=C\c2ccc(F)cc2)OC1=O (stereo not shown) [c-CASL7] | 1.14 | –
CC1=CC(OC(=O)CCc2ccccc2)OC1=O (stereo not shown) [PPASL] | 1.46 | IC50 [4]: 2.24 µM; germination-inducing activity compared with c-CASL1 or t-CASL1 [3]: much weaker activity; hydrolysis by AtD14 [6]: can hydrolyze; hydrolysis by HTL7 [7]: can hydrolyze
CC1=CC(OC(=O)/C=C/c2ccc([N+](=O)[O-])cc2)OC1=O (stereo not shown) [t-CASL6] | 0.71 | –
CC1=CC(OC(=O)/C=C/c2ccc(Cl)cc2)OC1=O (stereo not shown) [t-CASL9] | 0.83 | –
CC1=CC(OC(=O)/C=C/c2ccc(C)cc2)OC1=O (stereo not shown) [t-CASL2] | 1.41 | –
CC1=CC(OC(=O)/C=C2\CCc3ccccc32)OC1=O (stereo not shown) [t-indCASL] | 3.07 | germination-inducing activity compared with the corresponding non-fixed (unfixed) analog [3]: much stronger activity
CC1=CC(OC(=O)/C=C\c2ccc(C)cc2)OC1=O (stereo not shown) [c-CASL2] | 0.68 | –
CC1=C[C@H](O/C=C2/C(=O)O[C@@H]3c4ccccc4C[C@H]23)OC1=O (relative stereo) [GR24, reference compound] | 0.17 | IC50 ([4]; ShHTL6, YLG hydrolysis, 1 h incubation, read-out: IC50 in YLG assay): 2.35 µM
CC1=CC(OC(=O)/C=C\c2ccc(Cl)cc2)OC1=O (stereo not shown) [c-CASL9] | 0.34 | –
CC1=CC(OC(=O)/C=C/c2ccc(C(F)(F)F)cc2)OC1=O (stereo not shown) [t-CASL10] | 0.34 | –
CC1=CC(OC(=O)/C=C/c2ccc(O)cc2)OC1=O (stereo not shown) [t-CASL3] | > 10 | –
COc1ccc(/C=C/C(=O)OC2C=C(C)C(=O)O2)cc1 (stereo not shown) [t-CASL4] | 2.21 | –
CC1=CC(OC(=O)/C=C\c2ccc(O)cc2)OC1=O (stereo not shown) [c-CASL3] | 3.43 | –
CC1=CC(OC(=O)/C=C\c2ccc(Br)cc2)OC1=O (stereo not shown) [c-CASL8] | 0.36 | –
O=C(O)/C=C\c1ccccc1 [cis-CA, cis-cinnamic acid, reference compound] | – | lateral root density ([8]; 11 days): increased; primary root length ([8]; 11 days): inhibited; shoot fresh weight ([8]; 20 days): increase
CCOc1ccc(/C=C/C(=O)OC2C=C(C)C(=O)O2)cc1 (stereo not shown) [t-CASL5] | – | IC50 [1, 9]: 3.97 µM
CC1=CC(OC(=O)/C=C2/CCCc3ccccc32)OC1=O (stereo not shown) [c-tetCASL] | 4.61 | –
CC1=CC(OC(=O)/C=C/c2ccc(Br)cc2)OC1=O (stereo not shown) [t-CASL8] | 0.7 | –
